Experimental data: ChEMBL document CHEMBL6103647, “Analgesic Grayanane-Derived Diterpenoids from the Flowers of Rhododendron molle” (J Nat Prod, 2025)

What was measured:
Mus musculus [1] = experiment: Analgesic activity against acetic acid-induced Kunming writhing mouse model assessed as inhibition of writhing at 5 mg/kg, ip pre-incubated for 15 mins followed by acetic acid addition and measured after 15 mins relative to control; format: functional; conditions: 0.25 h
Mus musculus [2] = experiment: Analgesic activity against acetic acid-induced Kunming writhing mouse model assessed as inhibition of writhing at 1 mg/kg, ip pre-incubated for 15 mins followed by acetic acid addition and measured after 15 mins relative to control; format: functional; conditions: 0.25 h
[3] = Therapeutic index, ratio of LD50 for toxicity in ip dosed Kunming mouse assessed as lethal dose to ED50 for analgesic activity against acetic acid-induced Kunming writhing mouse model assessed as effective dose; format: organism-based; conditions: in vivo, read-out: TI
Mus musculus [4] = experiment: Analgesic activity against acetic acid-induced ip dosed Kunming writhing mouse model assessed as effective dose pre-incubated for 15 mins followed by acetic acid addition and measured after 15 mins; format: functional; conditions: 0.25 h
[5] = Toxicity in ip dosed Kunming mouse assessed as lethal dose; format: organism-based; conditions: in vivo
Mus musculus [6] = experiment: Analgesic activity against acetic acid-induced Kunming writhing mouse model assessed as inhibition of writhing at 0.2 mg/kg, ip pre-incubated for 15 mins followed by acetic acid addition and measured after 15 mins relative to control; format: functional; conditions: 0.25 h
[7] = Toxicity in Kunming mouse at 5 mg/kg, ip administered for 15 mins; format: organism-based; conditions: in vivo, 0.25 h

CC1(C)[C@@H](O)[C@@H]2O[C@@H]3[C@H]4CC[C@H]5[C@@](C)(O)[C@@H]6[C@@H](O[C@@H]7[C@H]8CC[C@H]9[C@@](C)(O)[C@H]2[C@]1(O)[C@H](O)C[C@@]79C[C@@]8(C)O)[C@H](O)C(C)(C)[C@@]6(O)[C@H](O)C[C@@]35C[C@@]4(C)O
inhibition in vivo at 5 mg/kg (Mus musculus [1]): 74.1%
inhibition in vivo at 1 mg/kg (Mus musculus [2]): 50%

CC1(C)[C@@H](O)[C@H](O)[C@H]2[C@](C)(O)[C@@H]3CC[C@@H]4[C@@H](O)[C@@]3(C[C@@H](O)[C@@]21O)C[C@@]4(C)O
selectivity ratio [3]: 24.5
ED50 (Mus musculus [4]): 0.073 mg/kg

CC1=C2CC[C@@H]3[C@@H](O)[C@@]2(C[C@H]2O[C@@H](c4ccc(O)cc4)O[C@@]24C1[C@@H](O)[C@H](O)C4(C)C)C[C@@]3(C)O (stereo not given in full)
inhibition in vivo at 5 mg/kg (Mus musculus [1]): 74.1%
inhibition in vivo at 1 mg/kg (Mus musculus [2]): 50%

CC1(C)[C@@H](O)[C@H](OC(=O)[C@@]2(O)C[C@@H](O)[C@H](O)[C@H](OC(=O)/C=C/c3ccc(O)cc3)C2)[C@H]2[C@](C)(O)[C@@H]3CC[C@@H]4[C@@H](O)[C@@]3(C[C@@H](O)[C@@]21O)C[C@@]4(C)O
LD50 [5]: 131 mg/kg
inhibition in vivo at 5 mg/kg (Mus musculus [1]): 74.1%
inhibition in vivo at 0.2 mg/kg (Mus musculus [6]): 77.2%
selectivity ratio [3]: 1770
inhibition in vivo at 1 mg/kg (Mus musculus [2]): 50%
ED50 (Mus musculus [4]): 0.074 mg/kg

CC1=C2CC[C@@H]3[C@@H](O)[C@@]2(C[C@@H](O)[C@@]2(O)[C@H]1[C@@H](Cl)[C@H](O)C2(C)C)C[C@@]3(C)O
inhibition in vivo at 1 mg/kg (Mus musculus [2]): 50%

CC(=O)O[C@@H]1C[C@]23C[C@@](C)(O)[C@@H]4CC[C@H]2[C@@](C)(O)[C@@H]2[C@@H](O[C@@H]5[C@H]6CC[C@H]7[C@@](C)(O)[C@@H]8[C@@H](O[C@H]43)[C@H](O)C(C)(C)[C@@]8(O)[C@H](OC(C)=O)C[C@@]57C[C@@]6(C)O)[C@H](O)C(C)(C)[C@@]12O
inhibition in vivo at 5 mg/kg (Mus musculus [1]): 74.1%

CC1(C)[C@@H](O)[C@H](OC(=O)c2cccnc2)[C@H]2[C@](C)(O)[C@@H]3CC[C@@H]4[C@@H](O)[C@@]3(C[C@@H](O)[C@@]21O)C[C@@]4(C)O
Activity [7]: Toxic
inhibition in vivo at 1 mg/kg (Mus musculus [2]): 50%

CC1(C)[C@@H](O)[C@H](OC(=O)c2ccco2)[C@H]2[C@](C)(O)[C@@H]3CC[C@@H]4[C@@H](O)[C@@]3(C[C@@H](O)[C@@]21O)C[C@@]4(C)O
inhibition in vivo at 5 mg/kg (Mus musculus [1]): 74.1%
inhibition in vivo at 0.2 mg/kg (Mus musculus [6]): 71.5%
inhibition in vivo at 1 mg/kg (Mus musculus [2]): 50%

CN1CC[C@]23c4c5ccc(O)c4O[C@H]2[C@@H](O)C=C[C@H]3[C@H]1C5 [MORPHINE]
inhibition in vivo at 0.2 mg/kg (Mus musculus [6]): 39.4%
